Reference: patent US11274283B2 (priority 2014, dated 2022)

Assays:
[1] = system: Ralstonia solanacearum tyrosinase; type: biochemical; details: up to 400 mM
[2] = system: mushroom tyrosinase; details: at 5 mM; scientific literature; cited from earlier work
[3] = system: mushroom tyrosinase; assay: Inhibition of mushroom tyrosinase; type: biochemical; details: cannot complete the reaction

Compound: O=C1O[C@H]([C@@H](O)CO)C([O-])=C1O.[Na+] [ascorbic acid sodium salt]
- inhibition of Ralstonia solanacearum tyrosinase activity [1]: No inhibition

Compound: O=C1O[C@H]([C@@H](O)CO)C(O)=C1O [ascorbic acid]
- inhibition of mushroom tyrosinase [2]: inhibition

Compound: OCCc1ccc(O)cc1 [tyrosol, 4-(2-hydroxyethyl)phenol]
- tyrosol concentration above which commercial mushroom tyrosinase is inhibited [3]: above 10 g/l
